Measured values reported in patent US20230355558A1 (priority 2022, published 2023).
Entries after “also recorded” stand apart in the source; their conditions may differ.

Legend:
plasmin = plasmin (Homo sapiens, UniProt P00747); test: Fibrin clot degradation by plasmin (gravimetric, protease inhibition); assay type: biochemical; settings: for resistance against fibrin clot degradation by plasmin: about 0.1 mM, triplicate; for resistance against fibrin clot degradation by plasmin / protease inhibition activity (inhibiting plasmin mediated degradation of fibrin clots): up to 48 hours; for plasmin-mediated degradation of fibrin clots at 3% loading: about 3% loading in fibrin clots; for protease inhibition activity (inhibiting plasmin mediated degradation of fibrin clots): 0-1 mM in fibrin clots, plasmin in PBS buffer; for protease inhibition activity compared with TA (conclusion): fibrin clot / plasmin system; for degradation of the clot: about 16 hours
Sequence of plasmin (P00747 581-810): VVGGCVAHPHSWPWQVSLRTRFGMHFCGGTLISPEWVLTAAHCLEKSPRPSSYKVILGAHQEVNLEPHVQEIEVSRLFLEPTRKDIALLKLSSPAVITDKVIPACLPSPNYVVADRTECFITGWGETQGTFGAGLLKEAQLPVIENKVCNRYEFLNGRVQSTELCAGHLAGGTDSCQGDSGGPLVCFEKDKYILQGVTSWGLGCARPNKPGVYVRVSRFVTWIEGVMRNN
Sequence of plasmin (P00747 97-580): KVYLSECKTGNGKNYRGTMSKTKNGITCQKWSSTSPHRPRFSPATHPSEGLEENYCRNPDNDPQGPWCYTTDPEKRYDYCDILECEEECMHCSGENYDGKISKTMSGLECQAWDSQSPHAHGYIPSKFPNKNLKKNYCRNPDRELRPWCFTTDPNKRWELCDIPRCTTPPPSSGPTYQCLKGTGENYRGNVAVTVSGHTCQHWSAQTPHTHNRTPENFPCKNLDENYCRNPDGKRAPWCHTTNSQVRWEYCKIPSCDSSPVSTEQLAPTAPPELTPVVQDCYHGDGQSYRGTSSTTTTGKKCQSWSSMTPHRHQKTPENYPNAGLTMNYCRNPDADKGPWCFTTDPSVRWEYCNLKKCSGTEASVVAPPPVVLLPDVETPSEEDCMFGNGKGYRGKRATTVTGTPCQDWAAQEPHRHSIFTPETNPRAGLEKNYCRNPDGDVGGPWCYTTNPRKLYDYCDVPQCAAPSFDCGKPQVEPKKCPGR

[1] = tested on: NDV (Newcastle disease virus) strain R2B
[2] = Fibrin clot swelling at 3% loading, with and without plasmin; settings: for fibrin clot swelling in degrading medium prior to degradation: medium containing plasmin; for fibrin clot swelling in non-degrading medium: no plasmin
[3] = Qualitative test for relative solubility
[4] = tested on: Human neuroblastoma cell line Sh-Sy5y; test: Cellular toxicity assay (MTT assay), neurotoxicity; settings: Sh-Sy5y cells, 1 ug/mL, 24 hours

| Compound | resistance against fibrin clot degradation by plasmin (plasmin; pH 7.4, 37° C.) | plasmin-mediated degradation of fibrin clots at 3% loading (plasmin) | antiviral activity versus virus control [1] | fibrin clot swelling in degrading medium prior to degradation [2] | fibrin clot swelling in non-degrading medium [2] | protease inhibition activity (inhibiting plasmin mediated degradation of fibrin clots) (plasmin; pH 7.4, 37° C.) | protease inhibition activity compared with TA (conclusion) (plasmin) | concentration at which efficacious against fibrin clot degradation (plasmin; plasmin, pH 7.4, 37° C.) [mM] | water solubility [3] | solvent needed to dissolve in buffer relative to water ([3]; pH 7.4 100 mM phosphate buffer versus water) | solubility in methanol or propanol ([3]; room temperature) | toxicity to cells treated with compound only [1] | cytotoxicity or neurotoxicity compared with TA [4] | degradation of the clot (plasmin; 0.1 mM, plasmin, pH 7.4, 37° C.) [%] | degradation of the clot (plasmin; 1 mM, plasmin, pH 7.4, 37° C.) |
| --- | --- | --- | --- | --- | --- | --- | --- | --- | --- | --- | --- | --- | --- | --- | --- |
| NCC1CCC(C(=O)O)CC1 (stereo not shown) [TA, Tranexamic acid, reference compound] | effective resistance | inhibited plasmin-mediated degradation of the fibrin clots for a longer period | no significant difference between the virus control and treated | degraded without swelling | did not swell |  |  |  |  |  |  |  |  |  |  |
| NCC1CCC(C(=O)[O][Ca][O]C(=O)C2CCC(CN)CC2)CC1 (stereo not shown) [Ca-TA, Calcium bis-tranexamate] | effective resistance | inhibited plasmin-mediated degradation of the fibrin clots for a longer period | no significant difference between the virus control and treated | more than 50% | more than 50% | dose-dependent protease inhibition activity; also recorded: exhibit protease inhibition activity | comparable to that of TA | ≤ 0.1 | water soluble | approximately four times as much solvent | not soluble to a significant degree | no toxicity was observed | comparable cytotoxicity or neurotoxicity results as that of TA |  |  |
| COCC(=O)NCC1CCC(C(=O)O)CC1 (stereo not shown) [MTA, N-(methoxy-acetamido) tranexamic acid] |  |  | no significant difference between the virus control and treated |  |  | exhibit protease inhibition activity | eliminates or significantly reduces protease inhibition activity; also recorded: reduced protease inhibition activity than TA |  | water soluble |  |  |  | reduced neurotoxicity than TA | 100 | about 85.1+/−0.6% |
